Values quoted from earlier work as cited in patent US9278365B2, “Volatile material dispenser and method of emitting a volatile material” (priority 2014, dated 2016).

solubility	log P (octanol/water partition coefficient)	Molecule
2.1 Log P	–	COC(=O)c1ccccc1 [methyl benzoate]
–	4.3 Log P	CC(=O)O[C@@H]1C[C@H]2CC[C@]1(C)C2(C)C (racemic) [iso-bornyl acetate]
–	2 Log P	OC/C=C/c1ccccc1 [cinnamic alcohol]

Second part, the molecule before the results:

Molecule	solubility	log P (octanol/water partition coefficient)
methy cyclopetenone	–	1.29 Log P
CC(C=O)Cc1ccc(C(C)(C)C)cc1 (stereo not drawn) [lilial]	–	4.4 Log P
Cc1ncsc1CCO [sulfurol]	–	1.11 Log P
